Experiments:
[1] = system: renal clear cell carcinoma cell line 769-P; test: Antiproliferative single treatment study (CellTiterGlo, 120 h); assay type: cell-based; details: Homo sapiens, read-out: IC50 (Avg., n=2)
Description: (§1) All drug dilutions were made up as a 2× stock and 50 μL added to appropriate wells. Cells were treated for 120 h before viability was assessed using CellTiterGlo® (Promega) where the relative luminescence of untreated cells was set to 100% viability and each drug concentration expressed as a percentage of untreated cells. EC50 values were determined using GraphPad Prism (GraphPad Software, Inc). Briefly, raw data was log transformed and then analyzed using nonlinear regression (curve fit) where the data were constrained (bottom=0, top=100).

[2] = system: renal clear cell carcinoma cell line RCC-ER; test: as above; assay type: cell-based; details: read-out: IC50 (Avg., n=2)
Description: as §1

[3] = system: renal clear cell carcinoma cell line RCC-FG2; test: as above; assay type: cell-based; details: read-out: IC50 (Avg., n=2); RCC-FG2, 120 h
Description: as §1

[4] = system: renal clear cell carcinoma cell line RCC-JF; test: as above; assay type: cell-based; details: read-out: IC50 (Avg., n=2)
Description: as §1

[5] = system: renal clear cell carcinoma cell line A704; test: as above; assay type: cell-based; details: Homo sapiens, A704, 120 h, read-out: IC50 (Avg., n=2)
Description: as §1

[6] = system: renal clear cell carcinoma cell line RCC-JW; test: as above; assay type: cell-based; details: read-out: IC50 (Avg., n=2)
Description: as §1

[7] = system: renal clear cell carcinoma cell line 786-O; test: as above; assay type: cell-based; details: Homo sapiens, 786-0, read-out: IC50 (Avg., n=2)
Description: as §1

[8] = system: renal clear cell carcinoma cell line RCC-MF; test: as above; assay type: cell-based; details: read-out: IC50 (Avg., n=2)
Description: as §1

[9] = system: normal lung fibroblasts; test: Cytotoxicity in normal cells; assay type: cell-based; details: concentrations as high as 10 micromolar
Description: (§2) 35 cell lines were identified as sensitive to apilimod-induced cytotoxicity.

[10] = system: peripheral blood mononuclear cells; details: cited from earlier work
[11] = system: HELA; details: cited from earlier work
[12] = system: patients with rheumatoid arthritis; details: Phase II; cited from earlier work
[13] = system: TRI-AML103 (TSC2 rescue AML) cells; test: 10-point dose response viability (CellTiter-Glo, 72 hours); assay type: cell-based; details: Homo sapiens; AML column, rescue line; average of two experiments
Description: (§3) See e.g., Zhang et al. J. Clin. Invest. 112, 1223-33, 2003. (2) ELT3-EV and ELT3-TSC2 lines were established from the ELT3 rat tumor cell line. The ELT3 line is an established rat tumor model for LAM/TSC. See e.g., Howe et al., Am. J. Path. 146, 1568-79, 1995. These cells harbor an inactivating mutation in TSC2, which leads to constitutive activation of the mTOR pathway. To develop an isogenic pair of cells ELT3 cells were infected with a retrovirus vector encoding the hygromycin antibiotic resistance gene (ELT3-EV) or the same retrovirus vector also encoding TSC2 (ELT3-TSC2). The ELT3-EV and ELT3-TSC2 line were then established by hygromycin selection. (3) TRI-AML102 and AML103 lines were established from a TSC2 null primary human AML sample provided by Dr. Elizabeth Henske (Fox Chase Cancer Center, Philadelphia, Pa.). The cells were infected with amphotropic retrovirus LXSN16E6E7 that encodes the HPV16 E6 and E7 open reading frames and neomycin resistance cassette. Cells were expanded and neomycin-selected. Individual clones were isolated and frozen down. The coding sequence for the human Telomerase gene (hTERT) with hygromycin resistance cassette (pLXSN hTERT-hyg plasmid) was stably expressed into a TSC2^−/− confirmed E6E7 AML clone using Fugene6 transfection reagent (Roche Applied Science, Indianapolis, Ind.). TRI-AML102 was generated by stable incorporation of a control zeomycin selection plasmid (pcDNA3.1-zeo), while TRI-AML103 expresses the human TSC2 cDNA pcDNA3.1-zeo plasmid. As a result of these engineering processes, both TRI102 and TRI103 are neomycin, hygromycin, and zeomycin resistant lines.
(§4) IC50 values were then calculated from the dose response curves using XLFIT (IDBS).

[14] = system: ELT3-TSC2 cells; test: as above; assay type: cell-based; details: Rattus norvegicus; ELT3 rescue line; average of two experiments
Description: as §3, §4

[15] = system: MEF-TSC2 (TSC2 rescue) cells; test: as above; assay type: cell-based; details: Mus musculus; MEF TSC2 rescue line; average of two experiments
Description: as §3, §4

[16] = system: MEF-EV (TSC2−/−) cells; test: as above; assay type: cell-based; details: Mus musculus, average of two experiments
Description: as §3, §4

[17] = system: TRI-AML102 (TSC2 null AML) cells; test: as above; assay type: cell-based; details: Homo sapiens; AML column; average of two experiments
Description: as §3, §4

[18] = system: (TSC2+/−, p53−/−) MEF line; test: as above; assay type: cell-based; details: Mus musculus; MEF TSC2+/− p53−/− as counterpart of TSC2−/− p53−/−; average of two experiments; read-out: IC50 TSC2 rescue (viability)
Description: as §3, §4

[19] = system: ELT3-EV cells; test: as above; assay type: cell-based; details: Rattus norvegicus, average of two experiments, read-out: IC50 TSC2−/− (viability)
Description: as §3, §4

[20] = system: (TSC2−/−, p53−/−) MEF line; test: as above; assay type: cell-based; details: Mus musculus, average of two experiments
Description: as §3, §4

[21] = system: U937; details: cited from earlier work
[22] = system: H4 neuroglioma cell line; test: Autophagic vacuoles (Cyto-ID Autophagy detection kit); assay type: cell-based, human; details: H4 cells, 72 hours of treatment
Description: (§5) Autophagy was quantified using the Cyto-ID Autophagy detection kit (Enzo) according to manufacturer's directions.

[23] = system: H4; test: Cell viability dose response; assay type: cell-based; details: Homo sapiens, H4, Human neuroglioma
Description: as §2, §5
No statistically significant relationship was found with the sole exception of IL-23A (p=0.022). […] Importantly, the statistical significance of IL-23A expression in sensitive cancer lines appears to be driven entirely by just two colon cancer lines. Furthermore IL-23A expression is not a statistically significant predictor of sensitivity in Non-Hodgkin's B cell lymphoma.

[24] = molecular target: T1, Vac14 (Homo sapiens, UniProt Q08AM6); test: Chemical capture mass spectrometry (CCMS) in H4 whole cell lysate; assay type: binding; details: apilimod as competitor ligand
T1 construct: endogenous in cells; host or cells: H4 human neuroglioma cells (whole cell lysate)
T1 sequence (Q08AM6 whole entry): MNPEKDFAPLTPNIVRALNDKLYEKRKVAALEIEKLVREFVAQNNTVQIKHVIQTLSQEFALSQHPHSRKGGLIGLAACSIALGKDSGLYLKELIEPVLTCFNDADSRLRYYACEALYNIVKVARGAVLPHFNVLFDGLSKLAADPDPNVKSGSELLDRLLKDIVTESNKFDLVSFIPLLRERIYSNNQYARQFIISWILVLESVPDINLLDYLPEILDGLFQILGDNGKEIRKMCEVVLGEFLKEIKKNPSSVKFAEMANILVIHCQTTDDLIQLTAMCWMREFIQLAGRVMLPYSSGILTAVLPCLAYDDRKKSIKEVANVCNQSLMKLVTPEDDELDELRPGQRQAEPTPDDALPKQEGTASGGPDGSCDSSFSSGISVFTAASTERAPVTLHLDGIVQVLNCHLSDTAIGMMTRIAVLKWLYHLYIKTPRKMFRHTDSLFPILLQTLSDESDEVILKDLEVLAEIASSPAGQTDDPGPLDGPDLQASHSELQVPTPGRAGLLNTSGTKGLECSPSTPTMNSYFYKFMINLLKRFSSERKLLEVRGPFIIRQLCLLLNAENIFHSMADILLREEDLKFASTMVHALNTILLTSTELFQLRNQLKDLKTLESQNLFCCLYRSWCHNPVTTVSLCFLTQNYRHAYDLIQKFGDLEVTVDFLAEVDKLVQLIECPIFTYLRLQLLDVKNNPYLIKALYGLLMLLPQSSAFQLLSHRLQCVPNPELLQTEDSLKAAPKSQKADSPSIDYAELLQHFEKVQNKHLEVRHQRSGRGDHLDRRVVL
T1 sequence (Q9Y2I7 2-2098 partner): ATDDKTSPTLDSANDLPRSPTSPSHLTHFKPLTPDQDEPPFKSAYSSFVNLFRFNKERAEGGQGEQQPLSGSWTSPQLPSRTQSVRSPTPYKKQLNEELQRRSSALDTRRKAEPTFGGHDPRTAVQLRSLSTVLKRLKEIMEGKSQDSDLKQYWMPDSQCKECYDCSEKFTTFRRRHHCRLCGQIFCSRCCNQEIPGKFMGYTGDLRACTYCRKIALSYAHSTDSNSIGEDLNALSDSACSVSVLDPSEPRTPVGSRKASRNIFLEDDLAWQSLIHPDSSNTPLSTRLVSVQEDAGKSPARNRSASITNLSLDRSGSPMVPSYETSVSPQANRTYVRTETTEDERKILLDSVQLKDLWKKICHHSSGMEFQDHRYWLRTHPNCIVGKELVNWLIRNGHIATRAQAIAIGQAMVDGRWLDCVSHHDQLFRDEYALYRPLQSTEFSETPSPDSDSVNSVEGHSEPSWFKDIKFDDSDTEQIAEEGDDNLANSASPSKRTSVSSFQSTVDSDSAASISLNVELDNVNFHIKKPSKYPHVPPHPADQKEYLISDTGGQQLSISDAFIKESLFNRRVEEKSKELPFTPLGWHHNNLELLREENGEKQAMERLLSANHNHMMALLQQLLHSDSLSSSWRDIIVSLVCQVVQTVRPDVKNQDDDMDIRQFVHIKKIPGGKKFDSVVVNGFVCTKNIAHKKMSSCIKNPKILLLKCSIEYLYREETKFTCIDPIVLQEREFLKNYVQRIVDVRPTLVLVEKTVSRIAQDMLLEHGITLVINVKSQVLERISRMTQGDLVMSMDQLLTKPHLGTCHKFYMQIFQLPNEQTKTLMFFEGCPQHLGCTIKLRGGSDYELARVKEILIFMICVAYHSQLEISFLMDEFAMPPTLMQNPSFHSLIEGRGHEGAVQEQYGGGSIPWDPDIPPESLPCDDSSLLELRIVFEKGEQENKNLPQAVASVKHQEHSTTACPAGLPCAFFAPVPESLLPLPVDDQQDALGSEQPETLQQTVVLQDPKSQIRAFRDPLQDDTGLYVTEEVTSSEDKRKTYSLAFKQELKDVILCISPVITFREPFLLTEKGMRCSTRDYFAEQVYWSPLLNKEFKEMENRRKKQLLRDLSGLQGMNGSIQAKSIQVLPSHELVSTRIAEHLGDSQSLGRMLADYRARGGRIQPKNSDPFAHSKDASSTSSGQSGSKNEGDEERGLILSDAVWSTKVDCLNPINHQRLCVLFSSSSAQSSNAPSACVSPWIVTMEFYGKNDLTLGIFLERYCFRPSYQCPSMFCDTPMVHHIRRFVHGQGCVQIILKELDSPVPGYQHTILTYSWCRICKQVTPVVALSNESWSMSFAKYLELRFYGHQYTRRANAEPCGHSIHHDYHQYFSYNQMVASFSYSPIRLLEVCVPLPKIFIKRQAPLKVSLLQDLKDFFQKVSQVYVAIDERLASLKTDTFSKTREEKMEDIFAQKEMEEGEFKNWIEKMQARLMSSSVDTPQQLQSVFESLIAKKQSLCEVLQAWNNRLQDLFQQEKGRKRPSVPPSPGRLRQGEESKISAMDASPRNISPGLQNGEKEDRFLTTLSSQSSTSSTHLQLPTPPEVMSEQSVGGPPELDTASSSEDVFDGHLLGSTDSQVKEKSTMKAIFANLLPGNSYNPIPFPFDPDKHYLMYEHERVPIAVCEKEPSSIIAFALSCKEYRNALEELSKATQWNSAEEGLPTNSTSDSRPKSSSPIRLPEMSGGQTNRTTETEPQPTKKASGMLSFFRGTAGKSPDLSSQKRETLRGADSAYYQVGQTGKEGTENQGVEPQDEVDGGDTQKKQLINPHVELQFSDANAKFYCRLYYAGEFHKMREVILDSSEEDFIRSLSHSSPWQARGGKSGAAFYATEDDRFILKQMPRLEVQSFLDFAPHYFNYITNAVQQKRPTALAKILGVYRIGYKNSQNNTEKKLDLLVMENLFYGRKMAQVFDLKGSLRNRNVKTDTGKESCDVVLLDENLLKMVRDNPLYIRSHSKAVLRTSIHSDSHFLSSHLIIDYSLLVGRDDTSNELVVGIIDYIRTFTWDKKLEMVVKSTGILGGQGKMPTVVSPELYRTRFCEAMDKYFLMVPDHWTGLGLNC
Description: This work was performed at Caprotec Bioanalytics GmbH, Berlin Germany. See Michaelis et al., J. Med. Chem., 55 3934-44 (2012) and references cited therein.
Capture conditions were optimized in whole cell lysate from H4 (human neuroglioma) cancer cells, e.g. minimization of non-specific interactions of the proteins with capture compounds, concentration of reagents and proteins to obtain maximum binding of proteins and capture compounds, etc. […] These specific binders were further subjected to stringent data analysis criteria to determine specificity after unbiased data evaluation. Specific protein binders were ranked according to their fold change (FC) values in the capture experiments.

[25] = system: THP-1; details: cited from earlier work
[26] = system: Jurkat; details: cited from earlier work

SMILES: Cc1cccc(/C=N/Nc2cc(N3CCOCC3)nc(OCCc3ccccn3)n2)c1 [LAM-002]
- IC50 [1]: 44 nM
- IC50 [2]: 9 nM
- IC50 [3]: 32 nM
- IC50 [4]: 60 nM
- IC50 [5]: 11 nM
- IC50 [6]: 27 nM
- IC50 [7]: 71 nM
- IC50 [8]: 8 nM

SMILES: Cc1cccc(/C=N/Nc2cc(N3CCOCC3)nc(OCCc3ccccn3)n2)c1 [apilimod]
- sensitivity to apilimod-induced cytotoxicity [9]: not sensitive
- cytotoxicity [10]: not cytotoxic
- cytotoxicity [11]: not cytotoxic
- synovial IL-12 and IL-23 expression [12]: failed to alter synovial IL-12 and IL-23 expression
- IC50 [13]: 132 nM
- IC50 [14]: 16.1 nM
- IC50 [15]: 20.1 nM
- IC50 [16]: 19.7 nM
- IC50 [17]: 117 nM
- IC50 [18]: 70.7 nM
- IC50 [19]: 13.7 nM
- IC50 [20]: 28.8 nM
- cytotoxicity [21]: not cytotoxic
- autophagy (autophagic vacuoles) [22]: induces autophagy in a dose-dependent manner
- IC50 [23]: 250 to 300 nM
- log (FC) ([24]; capture compound 0.1 μM): 6.2
- log (FC) ([24]; capture compound 0.5 μM): 5.6
- log (FC) ([24]; capture compound 1.0 μM): Inf.
- log (FC) ([24]; capture compound 2.0 μM): 3.9
- cytotoxicity [25]: not cytotoxic
- cytotoxicity [26]: not cytotoxic

From patent US11166944B2 (AI Therapeutics, priority 2014, dated 2021)
